Source: US20130102638A1, “METHODS AND COMPOSITIONS FOR CONTROLLING ALGAE” (priority 2002, published 2013)

Tests used:
[1] = tested on: Pseudanabaena (blue-green); test: Picolinafen on axenic Pseudanabaena culture, cell counts; format: cell-based; details: 10-day exposure
Method: (§1) A stock solution of 50 micrograms picolinafen/L was prepared from technical grade picolinafen. Axenic algal cultures of Scenedesmus and Ankistrodesmus (green phytoplankton), Pithophora and Oedogonium (filamentous green), and Anabaena, Oscillatoria, and Pseudanabaena (blue-green) were grown. Stock material from these cultures was placed in 250 ml of CLII media (a known, defined algal growth medium). Following the addition of the algae, picolinafen was added to the beakers to achieve concentrations of 0, 1.5, 5, 10, 25, and 50 ppb. Each treatment was replicated three times and beakers were placed in Percival growth chambers that were set at 25° C., with a light intensity of 300 micromoles/square meter/second and a 16:8 photoperiod. The algae were given a 10 to 14 day incubation period, and depending on the growth form of the algae, either total chlorophyll, cell counts, or algal biomass were quantified as end points.

eurasian watermilfoil = test: Impact on growth of eurasian watermilfoil; format: in vivo; details: at levels showing significant control of the algal species
Ankistrodesmus = test: Picolinafen on axenic Ankistrodesmus culture, cell counts; format: cell-based; details: 10-day exposure
Method: as §1

Spirogyra = test: Picolinafen on Spirogyra culture, biomass; format: cell-based; details: 10-day exposure
Method: [The source words this procedure for another organism and reports this organism under the same test.] as §1

Oedogonium = test: Picolinafen on axenic Oedogonium culture, total chlorophyll and biomass; format: cell-based; details: 10-day exposure
Method: as §1

hydrilla = test: Impact on growth of hydrilla; format: in vivo; details: at levels showing significant control of the algal species
Scenedesmus = test: Picolinafen on axenic Scenedesmus culture, total chlorophyll; format: cell-based; details: 10-day exposure
Method: as §1

Oscillatoria = test: Picolinafen on axenic Oscillatoria culture, total chlorophyll; format: cell-based; details: 10-day exposure
Method: as §1

Anabaena = test: Picolinafen on axenic Anabaena culture, total chlorophyll; format: cell-based; details: for Total Chl: 10-day exposure
Method: as §1

[2] = tested on: Pithophora (filamentous green); test: Picolinafen on axenic Pithophora culture, biomass; format: cell-based; details: 10-day exposure
Method: as §1

algal species = test: Algal culture exposure, overall observations; format: cell-based
Method: as §1

Question: For `O=C(Nc1ccc(F)cc1)c1cccc(Oc2cccc(C(F)(F)F)c2)n1` [Picolinafen, N-(4-fluorophenyl)-6-[3-(trifluoromethyl)phenoxy]-2-pyridinecarboxamide], which “Cell Count” value ([1]; 1.5 ppb) is on record?
Answer: The value was 2,344 cells/ml.

Question: And the “Cell Count” value ([1]; 5 ppb)?
Answer: Its value is 89 cells/ml.

Question: What about the “Cell Count” value ([1]; 10 ppb) of the same molecule?
Answer: The value was 52 cells/ml.

Question: And the “Cell Count” value ([1]; 25 ppb)?
Answer: The value was 98 cells/ml.

Question: What about the “Cell Count” value ([1]; 50 ppb) of the same molecule?
Answer: Its value is 77 cells/ml.

Question: What about the “impact upon the growth of eurasian watermilfoil” value (eurasian watermilfoil) of the same molecule?
Answer: The value was “substantially no impact”.

Question: What about the “Cell Count” value (Ankistrodesmus; 1.5 ppb) of the same molecule?
Answer: Its value is 3,025,323 cells/ml.

Question: And the “Cell Count” value (Ankistrodesmus; 5 ppb)?
Answer: The value was 141,246 cells/ml.

Question: And the “Cell Count” value (Ankistrodesmus; 10 ppb)?
Answer: Its value is 96,622 cells/ml.

Question: What about the “Cell Count” value (Ankistrodesmus; 25 ppb) of the same molecule?
Answer: The value was 87,012 cells/ml.

Question: What about the “Cell Count” value (Ankistrodesmus; 50 ppb) of the same molecule?
Answer: Its value is 81,706 cells/ml.

Question: What about the Biomass (Spirogyra; 1.5 ppb) of the same molecule?
Answer: The Biomass was 16.2 mg dry wt./beaker.

Question: What about the Biomass (Spirogyra; 5 ppb) of the same molecule?
Answer: Its Biomass is 6.9 mg dry wt./beaker.

Question: And the Biomass (Spirogyra; 10 ppb)?
Answer: The Biomass was 3.0 mg dry wt./beaker.

Question: And the Biomass (Spirogyra; 25 ppb)?
Answer: The Biomass was 3.8 mg dry wt./beaker.

Question: And the Biomass (Spirogyra; 50 ppb)?
Answer: The Biomass was 3.3 mg dry wt./beaker.

Question: And the Biomass (Oedogonium; 1.5 ppb)?
Answer: The Biomass was 0.064 mg dry wt./beaker.

Question: What about the “Total Chl” value (Oedogonium; 1.5 ppb) of the same molecule?
Answer: The value was 1522 μg chl.

Question: What about the Biomass (Oedogonium; 5 ppb) of the same molecule?
Answer: The Biomass was 0.027 mg dry wt./beaker.

Question: What about the “Total Chl” value (Oedogonium; 5 ppb) of the same molecule?
Answer: The value was 1057 μg chl.

Question: What about the Biomass (Oedogonium; 10 ppb) of the same molecule?
Answer: Its Biomass is 0.019 mg dry wt./beaker.

Question: What about the “Total Chl” value (Oedogonium; 10 ppb) of the same molecule?
Answer: Its value is 342 μg chl.

Question: And the Biomass (Oedogonium; 25 ppb)?
Answer: The Biomass was 0.011 mg dry wt./beaker.

Question: What about the “Total Chl” value (Oedogonium; 25 ppb) of the same molecule?
Answer: Its value is 247 μg chl.

Question: What about the Biomass (Oedogonium; 50 ppb) of the same molecule?
Answer: Its Biomass is 0.005 mg dry wt./beaker.

Question: And the “Total Chl” value (Oedogonium; 50 ppb)?
Answer: The value was 144 μg chl.

Question: What about the “impact upon the growth of hydrilla” value (hydrilla) of the same molecule?
Answer: The value was “substantially no impact”.

Question: What about the “Total Chl” value (Scenedesmus; 1.5 ppb) of the same molecule?
Answer: Its value is 2427 (119) μg chl/g.

Question: What about the “Total Chl” value (Scenedesmus; 5 ppb) of the same molecule?
Answer: Its value is 87 (16) μg chl/g.

Question: What about the “Total Chl” value (Scenedesmus; 10 ppb) of the same molecule?
Answer: The value was 15 (6) μg chl/g.

Question: What about the “Total Chl” value (Scenedesmus; 25 ppb) of the same molecule?
Answer: The value was 17 (8) μg chl/g.

Question: What about the “Total Chl” value (Scenedesmus; 50 ppb) of the same molecule?
Answer: Its value is 12 (6) μg chl/g.

Question: And the “Total Chl” value (Oscillatoria; 1.5 ppb)?
Answer: The value was 14 μg chl.

Question: And the “Total Chl” value (Oscillatoria; 5 ppb)?
Answer: The value was 10 μg chl.

Question: What about the “Total Chl” value (Oscillatoria; 10 ppb) of the same molecule?
Answer: Its value is 21 μg chl.

Question: And the “Total Chl” value (Oscillatoria; 25 ppb)?
Answer: Its value is 17 μg chl.

Question: And the “Total Chl” value (Oscillatoria; 50 ppb)?
Answer: The value was 13 μg chl.

Question: What about the “tolerance of Anabaena compared to other algal species” value (Anabaena) of the same molecule?
Answer: Its value is “highest level of tolerance”.

Question: And the “Total Chl” value (Anabaena; 1.5 ppb)?
Answer: The value was 880 μg chl.

Question: What about the “Total Chl” value (Anabaena; 5 ppb) of the same molecule?
Answer: Its value is 906 μg chl.

Question: And the “Total Chl” value (Anabaena; 10 ppb)?
Answer: The value was 685 μg chl.

Question: What about the “Total Chl” value (Anabaena; 25 ppb) of the same molecule?
Answer: The value was 526 μg chl.

Question: What about the “Total Chl” value (Anabaena; 50 ppb) of the same molecule?
Answer: Its value is 101 μg chl.

Question: What about the Biomass ([2]; 1.5 ppb) of the same molecule?
Answer: Its Biomass is 26.2 mg dry wt./beaker.

Question: And the Biomass ([2]; 5 ppb)?
Answer: The Biomass was 19.1 mg dry wt./beaker.

Question: What about the Biomass ([2]; 10 ppb) of the same molecule?
Answer: Its Biomass is 20.4 mg dry wt./beaker.

Question: And the Biomass ([2]; 25 ppb)?
Answer: Its Biomass is 14.8 mg dry wt./beaker.

Question: And the Biomass ([2]; 50 ppb)?
Answer: Its Biomass is 11.4 mg dry wt./beaker.

Question: What about the “sensitivity of most algal species” value (algal species; concentrations of 10 ppb and less) of the same molecule?
Answer: The value was “highly sensitive”.

Question: What about the “time to bleaching (visual observations)” value (algal species; some of the test species) of the same molecule?
Answer: Its value is at most 12 h.

Question: What about the “algacidal versus herbicidal activity in the aquatic environment” value (algal species; two aquatic macrophyte species compared with various algal species) of the same molecule?
Answer: The value was “greater algacidal than herbicidal activity”.
